Measurements published in patent US12156883B2, “Bisphosphocin gel formulations and uses thereof” (Lakewood Amedex, Inc., priority 2017, dated 2024).
Entries after “also recorded” stand apart in the source; their conditions may differ.

Tested on: methicillin resistant Staphylococcus aureus strain USA300 (TPPS 1056)
Experiment: Staphylococcus aureus-induced murine dermal infection model
Type: in vivo
Conditions: female SKH1 mice, topical 10% Nu-3 fatty alcohol-based gel pH 1.5, 4 h after challenge
Protocol: Female SKH1 mice ordered from Charles River Laboratories are acclimated to housing conditions and handled in accordance with Animal Use Protocol (AUP) number TP-18. The animals are acclimated for a minimum of 24 hours prior to bacterial challenge and are 6-8 weeks old on Day 0 of the experiment. Only animals deemed healthy are included in this study. Animals are fed irradiated Teklad Global Rodent Diet 2918 and water ad libitum. Mice are housed in static cages with irradiated Teklad ⅛″ corn cob bedding 7902 inside bioBubble® Clean Rooms that provide H.E.P.A. filtered air into the bubble environment at 100 complete air changes per hour. All treatments and infectious challenges are carried out in a BSL2 surgical suite. The environment is controlled to a temperature range of 74°±4° F. and a humidity range of 30-70%. […]
Immediately following tape stripping, each animal receives a topical application with approximately 6.0 log10 CFU per mouse in a volume of 100 μL spread in an area approximately 0.75″×0.75″. […] The final CFU count from the challenge suspension determined that 5.6 log10 CFU per mouse is delivered. […]
Following euthanasia, a section of excised skin approximately 0.5″×0.5″ is aseptically removed from the infected/treated area and transferred to vials with 2.0 mL of sterile water and weighed. […] Tissue pH is measured using litmus paper and recorded. […]

## CCCCOP(=O)(O)OC[C@H]1OC(n2cc(C)c(=O)[nH]c2=O)C[C@@H]1OP(=O)(O)OCCCC (stereo partly drawn) [Nu-3, (2R,3S)-2-((butoxy(hydroxy)phosphoryl)oxy)methyl)-5-(5-methyl-2,4-dioxo-3,4-dihydropyrimidin-1(2H)-yl)tetrahydrofuran-2-yl) butyl hydrogen phosphate]
5 and 12 hours post-challenge
  CFU burden compared to untreated control animals: significant decreases; also recorded: significantly decreases
All harvest time points
  CFU burden compared to vehicle-treated animals: significant decreases; also recorded: significantly decreases
